Experimental data published in patent US7427599B2, “Biologically active peptide comprising Tyrosyl-seryl-valine(YSV)” (CMS Peptides Patent Holding Company Limited, priority 2003, dated 2008).
Marks after values point to notes of the source that are not given here. Peptide text beside a SMILES is read from it.

Legend:
[1] = tested on: A549 human pulmonary carcinoma; experiment: A549 human pulmonary carcinoma xenograft in nude mice; assay type: in vivo, BALB/c (nu/nu) athymic nude mice; conditions: for Tumor inhibition index (%) / Tumor volume (cm^3) / Tumor weight: 40 days
Experimental: Healthy BALB/c (nu/nu) athymic nude mice (SPF, 4-5 weeks old, weighting 18-22 g) were purchased from Shanghai Tumor Academe of China Medical Academy of Science. In the first experiment, female was used. In the second experiment, male was used.
Select A549 human pulmonary carcinoma xenografts of diameter longer than 1 cm with good growth on nude mice. Aseptically excise the tumor mass, cut into pieces of 2-4 mm^3 and submerged in RPMI1640. Pulmonary carcinoma nude mice model was prepared by transplanting the tumor mass hypodermally to the back of healthy nude mice near to the neck via an incision at the ventral thorax.
The nude mice bearing A549 xenografts were randomly divided into groups of: saline control (0.2 ml/day), YSV groups of different dosages, and Cy control (0.2 mg/kg/day). The test substances were dissolved in 0.2 ml saline and administered intraperitoneally to the mice starting from the day after the transplantation, once per day for 40 consecutive days.
The general condition of the mice was observed daily. The mice were weighed every 3-4 days and the volume of the tumor was measured:
V=(⅙)πXYZ, where X, Y, and Z were the diameters of the tumor on the 3 planes.
The day after the last injection, the tumors were excised, weighted, and the volume measured. The tumors were examined for signs of necrosis. Tumor inhibition index=(average tumor weight of saline group−average tumor weight of test group)/average tumor weight of saline group×100%)
Statistical analysis was performed with SPSS software using one-way ANOVA analysis.

[2] = tested on: T lymphocytes (spleen lymphocyte suspension); experiment: Effect of YSV on T lymphocyte transformation in vitro (ConA, MTT); assay type: cell-based, BALB/c Mice; conditions: for X ± SD (OD), T lymphocytes transformation: 68 hrs, MTT OD570 nm, positive control 0.14 ± 0.00
Experimental: Healthy mice were sacrificed by cervical dislocation. The spleens were isolated and dispersed aseptically. The spleen lymphocyte suspension washed and adjusted to a cell density of 5×10^6/ml with RPMI-1640 culture medium containing 10% fetal bovine serum. YSV was diluted with RPMI-1640 culture medium into various concentrations: 2 μg/ml, 0.4 μg/ml, 0.08 μg/ml, 0.016 μg/ml. Con A working solution was adjusted to 1 mg/ml with RPMI-1640 culture medium.
The reagents were placed onto a 96 wells cell culture plate according to the following: 100 μl/well lymphocyte suspension, 20 μl/well ConA, and 100 μl/well YSV solution of various concentrations, 6 parallel wells for each concentration; 100 μl/well lymphocyte suspension and 120 μl/well RPMI-1640 culture medium (containing 10% FBS) were added to 12 parallel wells as negative control; 100 μl/well lymphocyte suspension, 100 μl/well RPMI-1640 culture medium (10% FBS) and 20 μl/well ConA were added to 12 parallel wells as positive control.
The cells were incubated for 68 hrs at 37° C., 5% CO2, and then pelleted by centrifugation at 150 g for 10 minutes. After the supernatant was removed, 50 μl/well MTT of 1 mg/ml in RPMI-1640 was added to the cell pellet and the cells were re-suspended by shaking for 2 minutes. The incubation was continued for 4 hours. The supernatant was removed after centrifugation at 150 g for 10 minutes. After blotted dry with filter paper, the cells were mixed with 120 μl 40 mM HCl-2-propanol and shaken for 3 minutes. OD570 nm of each well referenced at 630 nm was obtained with an ELISA reader.

[3] = tested on: human leukemia K562 cells; experiment: Proliferation of cultured human leukemia K562 cells in vitro (MTT); assay type: cell-based; conditions: for % inhibition / OD value: 48 hours; for OD value: MTT OD570 nm, negative control 0.43 ± 0.01
Experimental: A human leukemia K562 cell at logarithmic growth phase was adjusted to density of 5×10^4/ml with RPMI-1640 culture medium containing 10% FBS. 100 μl/well of the cell were placed onto a 96 wells cell culture plate. The cells were incubated for 24 hours at 37° C., 5% CO2. The experiment included […] with different concentrations of YSV in culture medium and a negative control group with culture medium only. The final concentrations of YSV were 40 μg/ml, 20 μg/ml, 10 μg/ml, and 5 μg/ml. Each group contained five parallel wells. 100 μl/well testing solution was added to the treated cells. The cells were incubated for 48 hours at 37° C., 5% CO2.
The cells were then pelleted by centrifugation at 150 g for 10 minutes. The supernatant was removed and 100 μl/well MTT solution of 0.5 mg/ml in RPMI-1640 was added to the cell pellets and the cells were re-suspended by shaking for 2 minutes. Incubation was continued for 4 hours. The supernatant was removed after a centrifugation at 150 g for 10 minutes. After blotted dry by filter paper, 100 μl/well 40 mM HCl-2-propanol was added to the cell pellets and shaken for 3 minutes. OD570 nm of each well referenced at 630 nm was obtained by using ELISA reader.

## CC(C)[C@H](NC(=O)[C@H](CO)NC(=O)[C@@H](N)Cc1ccc(O)cc1)C(=O)O [YSV, L-Tyrosyl-L-seryl-L-valine] (H-Tyr-Ser-Val-OH)
[1]; experiment 1, female nude mice, 160 μg/kg/day i.p.
  Tumor inhibition index (%): 32.8%
[1]; experiment 1, female nude mice, 160 μg/kg/day i.p., saline 1.87 ± 1.10
  Tumor volume (cm^3): 0.92 ± 0.79* cm^3
[1]; experiment 1, female nude mice, 160 μg/kg/day i.p., saline 2.49 ± 1.02
  Tumor weight: 1.67 ± 0.97 g
[1]; experiment 1, female nude mice, 320 μg/kg/day i.p.
  Tumor inhibition index (%): 32.2%
[1]; experiment 1, female nude mice, 320 μg/kg/day i.p., saline 1.87 ± 1.10
  Tumor volume (cm^3): 0.84 ± 0.45* cm^3
[1]; experiment 1, female nude mice, 320 μg/kg/day i.p., saline 2.49 ± 1.02
  Tumor weight: 1.69 ± 0.70 g
[1]; experiment 1, female nude mice, 640 μg/kg/day i.p.
  Tumor inhibition index (%): 37.4%
[1]; experiment 1, female nude mice, 640 μg/kg/day i.p., saline 1.87 ± 1.10
  Tumor volume (cm^3): 1.17 ± 0.84 cm^3
[1]; experiment 1, female nude mice, 640 μg/kg/day i.p., saline 2.49 ± 1.02
  Tumor weight: 1.56 ± 1.08 g
[1]; experiment 2, male nude mice, 160 μg/kg/day i.p.
  Tumor inhibition index (%): 50.8%
[1]; experiment 2, male nude mice, 160 μg/kg/day i.p., saline 1.34 ± 0.69
  Tumor volume (cm^3): 0.78 ± 0.41 cm^3
[1]; experiment 2, male nude mice, 160 μg/kg/day i.p., saline 1.51 ± 0.79
  Tumor weight: 0.74 ± 0.31 g
[1]; suitable dosages, p<0.05 vs saline
  inhibition of growth of A549 xenograft in nude mice (conclusion): able to inhibit the growth of nude mice-transplanted A549 human pulmonary carcinoma xenograft
[2]; 0.016 μg/ml to 2 μg/ml, p<0.001
  stimulation of T lymphocyte transformation activity in vitro (conclusion): able to stimulate the T lymphocyte transformation activity in vitro with statistical significance
[2]; YSV 0.016 μg/ml with ConA
  X ± SD (OD), T lymphocytes transformation: 0.21 ± 0.01 OD
[2]; YSV 0.08 μg/ml with ConA
  X ± SD (OD), T lymphocytes transformation: 0.23 ± 0.00 OD
[2]; YSV 0.4 μg/ml with ConA
  X ± SD (OD), T lymphocytes transformation: 0.18 ± 0.01 OD
[2]; YSV 2 μg/ml with ConA
  X ± SD (OD), T lymphocytes transformation: 0.18 ± 0.00 OD
[3]; 5 μg/ml to 40 μg/ml, p<0.05
  inhibition of growth of K562 cells in vitro (conclusion): able to inhibit the growth of human leukemia K562 cells in vitro
[3]; 5 μg/ml
  % inhibition: 9.7%
  OD value: 0.39 ± 0.01
[3]; 10 μg/ml
  % inhibition: 9.3%
  OD value: 0.39 ± 0.01
[3]; 20 μg/ml
  % inhibition: 11.3%
  OD value: 0.38 ± 0.00
[3]; 40 μg/ml
  % inhibition: 10.8%
  OD value: 0.38 ± 0.00
